{
  "source": "patent US20210038730A1",
  "about": "“PEPTIDE NANOFIBERS” (UNIVERSITY OF PORTSMOUTH HIGHER EDUCATION CORPORATION, priority 2018, published 2021)",
  "key": {"[1]": {"tested_on": "hCMEC/D3 cells", "test": "Cytotoxicity (MTT) in blood-brain barrier endothelial cells", "assay_type": "cell-based, human", "settings": "3.5-140 μM, 4 and 24 hours", "procedure": "Human brain microvessel endothelial cells (hCMEC/D3) and cerebral astrocytes (SC-1800) were maintained in a humidified atmosphere of 5% CO2, and the medium was refreshed every 2-3 days. hCMEC/D3 cells were cultured in endothelial basal medium-2 (EBM-2) supplemented with the EGM-2 Bullet Kit and 2% (v/v) human serum. SC-1800 were cultured in astrocytes basal medium (ABM) supplemented with AGM Bullet Kit and 3% (v/v) human serum. […] Subsequently, complete growth medium (4 mL) was added and cells were centrifuged using a C-28A centrifuge (Boeco, Hamburg, Germany) at 1,000 rpm for 5 minutes. Supernatant was discarded, and pellet was re-suspended in 1 mL of medium. The cell number was counted using Trypan Blue Exclusion Assay in the Countess II Automated Cell Counter (Thermo Scientific, Paisley, UK). hCMEC/D3 and SC-1800 cells were seeded at 20,000 cells/cm^2 in complete medium and allowed to attach overnight. […] Cell metabolic activity was measured after 4 and 24 hours using (3-(4,5)-dimethylthiazol-2-yl)-2,5-diphenyltetrazolium bromide ([…]) assay. […] Subsequently, DMSO (100 μL) was added to dissolve the formazan crystals and absorbance was measured at 570 and 690 nm. Metabolic activity was calculated by subtracting the absorbance values at 690 nm to 570 nm to remove background, and dividing the values by the control to express as a percentage (%) of the control using the equation below. […]"}, "[2]": {"test": "in vitro", "settings": "human, tissue homogenate", "protocol": "Fresh blood, obtained from adult male Wistar rats, was collected in sterile the 170 I.U. lithium heparin-coated tubes (Vacutainer, BD Bioscience, UK). Blood was centrifuged immediately at 2,000 g for 15 minutes (4° C.) and supernatant was collected and diluted to 50% (v/v) with PBS. Livers and brains were obtained from adult male Wistar rats, and the tissues were blotted to dryness, weighed, sliced into pieces, and homogenised with ice-cold PBS (in 2 mL of buffer g^−1 of tissue) using the glass homogeniser. Then, tissue homogenates were centrifuged at 4,300 g for 1 hour (4° C.) and the supernatants collected. Glioblastoma cell homogenates were prepared using U-87 MG cells. Cells were cultured in Eagle's Minimum Essential Medium (EMEM) supplemented with 10% (v/v) heat-inactivated fetal bovine serum (FBS), 1% (v/v) of non-essential amino acids (NEAA) and 1 mM of sodium pyruvate in T75 flasks with a surface area of 75 cm^2 and maintained in a humidified atmosphere of 5% CO2 at 37° C. Breast cancer cell homogenates were prepared using MDA-MB-231 cells. Cells were cultured in Dulbecco's Modified Eagle Medium (DMEM) supplemented with high levels of glucose (4.5 g/L), 10% (v/v) heat-inactivated fetal bovine serum (FBS), 1% (v/v) of non-essential amino acids (NEAA) and penicillin and streptomycin (500 units/mL) in T75 flasks with a surface area of 75 cm^2 and maintained in a humidified atmosphere of 5% CO2 at 37° C. Media was changed for both cell lines every 3 to 4 days. After reaching confluence, cells were washed twice with Hank's Balanced Salt Solution (HBSS) and incubated with ˜2 mL of TrypLE Enzyme at 37° C. for ˜3 minutes. Then, complete media were added, and cells were centrifuged at 1,000 rpm for 5 minutes in C-28A centrifuge (Boeco, Germany). U-87 MG or MDA-MB-231 cells (˜10×10^6 cells mL^−1) were re-suspended in ice-cold PBS, and homogenised with a 2×5 second pulses with the probe sonicator (UP200S Ultrasonic processor, SciMed, 200 watts, amplitude of 60%). Cell debris were removed by centrifugation at 2,000 rpm for 5 minutes (Jouan B4i, Thermo Scientific, Paisley, UK). Supernatant was collected and stored at −80° C. Total protein concentration in the homogenates was determined using the Bradford assay with bovine serum albumin as a standard. Diluted plasma, tissue or cell homogenates were pre-warmed during ˜30 minutes at 37° C. Peptide stock solutions (Glu-GnRH, goserelin acetate and TPGnRH, 5 mM in PBS, 500 μL) were prepared and added to the homogenate solutions (120 μL). PAX-loaded nanofibers prepared at a ratio of 1:7.36 [PAX:TPGnRH consisting of 3 μmol (2.56 mg mL^−1) of PAX, 22.02 μmol (31.46 mg mL^−1) of TPGnRH], as previously described, and further diluted in PBS to achieve a concentration of 5 mM of TPGnRH and 500 nM of PAX (120 μL) were added to the homogenates. At various time intervals, an aliquot was collected (80 μL) and added to ice-cold ACN (80 μL) to quench the enzymatic activity. Samples were stored at −80° C. for at least 3 hours to maximise protein precipitation. Samples were vortexed for 15 minutes, centrifuged for 15 minutes at 12,000 rpm, and the supernatants were collected and analysed by RP-HPLC."}, "[3]": {"tested_on": "U-87 MG cells", "test": "Apoptosis (Annexin V-FITC)", "assay_type": "cell-based, human", "settings": ">7 μM, every two days, 6 days of treatment", "procedure": "In vitro antitumour effects of TPGnRH and PAX-loaded TPGnRH were assessed in U-87 MG cells, UP-007, UP-029, SEBTA-023 MDA-MD-231 [triple negative (ER^−, PR—, HER2^−) breast cancer cell line] and SK-OV-3 (human ovarian carcinoma with a low expression of GnRH-R). Cells were seeded at 1,400 cells/cm^2 and allowed to attach and grow for 3 days. In experiments with TPGnRH nanofibers alone (to obtain the IC50 value in each cell line), cells were treated with medium supplemented with the peptide solutions in PBS (0.7 to 700 μM) to achieve a final concentration of 0.07 to 70 μM per well. Media was replaced by fresh media every two days for 6 days. […] On day 4, PAX-loaded TPGnRH nanofibers containing 1 nM of PAX and 7 or 35 μM of TPGnRH were added and the effect on cell viability, proliferation, cell cycle, and apoptosis was assessed on day 6. Only for the MDA-MB-231 cells, on day 4, PAX-loaded TPGnRH nanofibers containing 10 nM of PAX and 7 or 35 μM of TPGnRH were added and the effect on cell viability, proliferation, cell cycle, and apoptosis was also assessed on day 6. […] Cell metabolic activity was measured using MTT assay. […] Afterwards, dimethyl sulfoxide (100 μL) was added to the wells to dissolve the formazan crystals and the absorbance was measured at 570 and 690 nm. […] Cells were incubated with BrdU for 24 hours before the end of the pre-determined time-points. […]"}},
  "data": [
    {"compound": "CCCCCCCCCCCCCCCC(=O)Oc1ccc(C[C@H](NC(=O)[C@H](CO)NC(=O)[C@H](Cc2c[nH]c3ccccc23)NC(=O)[C@H](Cc2c[nH]cn2)NC(=O)[C@@H](N)CCC(=O)O)C(=O)NCC(=O)N[C@@H](CC(C)C)C(=O)N[C@@H](CCCNC(=N)N)C(=O)N2CCC[C@H]2C(=O)NCC(N)=O)cc1", "note": "[TPGnRH, Tyrosine (O-Palmitoyl)-Glu-GnRH]", "values": [
      {"measurement": "cytotoxicity (metabolic activity, MTT)", "setting": "[1]", "result": "no cytotoxicity"},
      {"measurement": "half-life at 4.03 mM", "setting": "[2]", "result": "51.9 ± 8.73", "unit": "h"},
      {"measurement": "effect on apoptosis", "setting": "[3]", "result": "trigger apoptosis"}
    ]}
  ]
}
